# Measured values published in patent EP4755889A1, “COMPOUND FOR DETECTING AMYLOID-BETA OLIGOMER AND METHOD FOR DIAGNOSING DEGENERATIVE BRAIN DISEASE USING SAME” (Amyloid Solution Inc., priority 2024, dated 2025).
# What was measured:
# Aβ1-42 oligomers = target: T1, Aβ1-42 oligomers (Homo sapiens, UniProt P05067); test: Selectivity for Aβ variant oligomers (fluorescence); assay type: binding; conditions: oligomeric Aβ variants 10 µM each; IK15j (10 µM)
# T1 construct: Aβ1-42 peptide was aggregated at 37 °C for 8 hours
# T1 sequence (P05067 672-713): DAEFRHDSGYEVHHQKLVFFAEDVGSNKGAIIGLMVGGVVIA
# Method: Accordingly, Aβ variant oligomers were prepared and incubated with IK15j to investigate the selectivity of the compound for Aβ variants. Briefly, samples of oligomeric Aβ1-40, Aβ1-42, and AβpE3-42 (10 µM each) were each treated with IK15j (10 µM), and the fluorescence intensity of each Aβ variant sample was measured.
# Aβn-(n+5) (n = 1 to 37) = test: Mapping Amyloid Plate (MAP): binding to immobilized Aβ1-42 hexamer fragments; conditions: MAP treated with IK15j for 24 hours
# Method: A Mapping Amyloid Plate (MAP) for investigating the target site of the compound of the present disclosure on Aβ1-42 fragments or Aβ1-42 oligomers was prepared with reference to Korean Patent Application No. 10-2023-0133625, which is incorporated herein by reference in its entirety.
# Briefly, to remove the bovine serum albumin coating from the plate, each well of the plate was washed three times with 200 µL of wash buffer (0.1 M sodium phosphate, 0.15 M sodium chloride, 0.05 % Tween-20, pH 7.2). Full-length and fragmented peptides of Aβ1-42 were individually dissolved in DMSO to prepare […] stock solutions, which were then diluted with binding buffer (0.1 M sodium phosphate, 0.15 M sodium chloride, 10 mM EDTA, pH 7.2) to prepare 50 µg/mL peptide solutions (5 % DMSO). 100 µL of the peptide solution was added to each well and allowed to react with the maleimide at room temperature overnight. After peptide immobilization, unbound peptides were removed by washing three times with 200 µL of wash buffer. […]
# Two conditions were prepared to confirm whether the compound of the present disclosure targets the structure or the sequence of Aβ oligomers. […] The fluorescence intensity of both plates was measured using a microplate reader (λex = 285 nm/λem = 475 nm). […]
# [1] = target: T2, Aβ oligomer-albumin complex (Homo sapiens, UniProt P05067); test: Plate-immobilized Aβ oligomer-albumin complexes versus Aβ oligomers; assay type: binding; conditions: immobilized on a plate; IK15j (25 µM)
# T2 construct: purchased Sigma-Aldrich (albumin)
# T2 sequence (P05067 672-713, one chain of several): as the sequence (P05067 672-713) above
# Method: Full-length Aβ1-42 peptide was immobilized on a maleimide-activated microplate. Then, the plate was treated with additional Aβ1-42 peptide (10 µM) at 37°C for 8 hours. After peptide immobilization, unbound peptides were removed by washing three times with 200 µL of wash buffer. To form albumin-Aβ oligomer complexes, the plate was treated with albumin (10 µM, Sigma-Aldrich, USA) at room temperature for 24 hours, and unbound residues were removed by washing three times with 200 µL of wash buffer. The control Aβ oligomer wells were not treated with albumin. Each well was treated with the compound of the present disclosure (100 µM), and the signal of each sample was detected using a microplate reader (λex = 285 nm / λem = 475 nm).
# Subsequently, both wells were treated with IK15j (25 µM), and the signals were compared (FIG. 9D).
smiles,measurement,setting,value
"Cc1ccc2c(c1)c(-c1ccccc1)cn1c(C)cc(C#N)c21 [IK15j, 3,8-dimethyl-6-phenylpyrrolo[2,1-a]isoquinoline-1-carbonitrile]",fluorescence intensity in the presence of Aβ1-42 oligomers compared to Aβ1-40 or AβpE3-42 oligomers,Aβ1-42 oligomers,increased markedly
same,signal in Aβ fragments compared to Aβ1-42,Aβn-(n+5) (n = 1 to 37),increase in IK15j signal was observed in 10 Aβ fragments (Aβ14-19 to Aβ23-28)
same,signal across all Aβ fragments,Aβn-(n+5) (n = 1 to 37); heatmap,relatively low across all fragments
same,"fluorescence intensity, Aβ oligomer-albumin complex versus Aβ oligomers alone",[1],no significant difference in fluorescence intensity
